The assay has as its target T1, recombinant MtbUGM (Mycobacterium tuberculosis, UniProt P9WIQ1).
T1 construct: made in house
Description: biochemical. The following applies: for inhibition at 50 µM: read-out: % inhib MtbUGM (50 μM); for inhibition at 100 µM: read-out: % inhib MtbUGM (100 μM); for inhibition at 10 µM: read-out: % inhib MtbUGM (10 μM).

Structures are written as SMILES. Where two headings read alike, the source gives them in different places.

T1 sequence (P9WIQ1 whole entry): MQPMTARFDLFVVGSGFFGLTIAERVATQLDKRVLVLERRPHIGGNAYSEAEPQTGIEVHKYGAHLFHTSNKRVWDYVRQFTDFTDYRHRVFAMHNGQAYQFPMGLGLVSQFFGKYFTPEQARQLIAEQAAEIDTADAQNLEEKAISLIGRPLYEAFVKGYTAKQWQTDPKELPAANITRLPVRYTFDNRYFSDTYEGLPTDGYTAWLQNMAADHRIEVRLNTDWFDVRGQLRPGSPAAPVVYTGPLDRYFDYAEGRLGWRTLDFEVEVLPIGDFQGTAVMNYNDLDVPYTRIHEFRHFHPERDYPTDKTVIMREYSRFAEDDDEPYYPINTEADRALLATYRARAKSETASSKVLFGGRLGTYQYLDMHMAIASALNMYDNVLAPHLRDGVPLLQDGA

Turning to `O=C(O)CC1Sc2nnc(Cc3ccc(Br)cc3)n2N=C1c1ccc(Cl)c(Cl)c1` (stereo not drawn) [Compound 16, 2-(3-(4-bromobenzyl)-6-(3,4-dichlorophenyl)-7H-[1,2,4]triazolo[3,4-b][1,3,4]thiadiazin-7-yl)acetic acid], the inhibition at 50 µM (50 μM, mean of two replicates) was found to be 78%. The inhibition at 100 µM (100 μM, mean of two replicates) amounted to 95%. As to `Cn1cnc(S(=O)(=O)NC(=O)CC2Sc3nnc(Cc4ccc(Br)cc4)n3N=C2c2ccc(Cl)cc2)c1` (stereo not drawn) [Compound 38], the inhibition at 50 µM came out at 36% and the inhibition at 100 µM turned out to be 68%. Regarding `O=C(O)CC1Sc2nnc(Cc3ccccc3)n2N=C1c1ccc(Cl)cc1` (stereo not drawn) [Compound 28, 2-(3-benzyl-6-(4-chlorophenyl)-7H-[1,2,4]triazolo[3,4-b][1,3,4]thiadiazin-7-yl)acetic acid], the inhibition at 50 µM (50 μM, mean of two replicates) was found to be 30%. In addition, the inhibition at 100 µM (100 μM, mean of two replicates) worked out at 43%.

With `O=C(CC1Sc2nnc(Cc3ccc(Br)cc3)n2N=C1c1ccc(Cl)cc1)NS(=O)(=O)c1ccc(Cl)s1` (stereo not drawn) [Compound 37], the inhibition at 10 µM was determined as 35%, the inhibition at 50 µM worked out at 100% and the inhibition at 100 µM was found to be 100%.

Regarding `COc1ccc(C2=Nn3c(Cc4ccc(Br)cc4)nnc3SC2CC(=O)O)cc1` (stereo not drawn) [Compound 22, 2-(3-(4-bromobenzyl)-6-(4-methoxyphenyl)-7H-[1,2,4]triazolo[3,4-b][1,3,4]thiadiazin-7-yl)acetic acid], for the setting “50 μM, mean of two replicates”, the inhibition at 50 µM was 35%. In addition, under “100 μM, mean of two replicates”, the inhibition at 100 µM amounted to 44%. For `Cc1ccc(C2=Nn3c(Cc4ccc(Br)cc4)nnc3SC2CC(=O)O)cc1` (stereo not drawn) [Compound 21, 2-(3-(4-bromobenzyl)-6-(p-tolyl)-7H-[1,2,4]triazolo[3,4-b][1,3,4]thiadiazin-7-yl)acetic acid] the same measures were 32% and 63%. On to `C=CCNC(=O)CC1Sc2nnc(-c3cccs3)n2N=C1c1ccc(Cl)cc1` (stereo not drawn) [Compound 34, N-allyl-2-(6-(4-chlorophenyl)-3-(thiophen-2-yl)-7H-[1,2,4]triazolo[3,4-b][1,3,4]thiadiazin-7-yl)acetamide], for which the inhibition at 100 µM (100 μM, mean of two replicates) came to 0%. Consider `Cc1ccc(C2=Nn3c(Cc4ccc(Br)cc4)nnc3SC2CC(=O)O)c(C)c1` (stereo not drawn) [Compound 24, 2-(3-(4-bromobenzyl)-6-(2,4-dimethylphenyl)-7H-[1,2,4]triazolo[3,4-b][1,3,4]thiadiazin-7-yl)acetic acid], for which the inhibition at 50 µM (50 μM, mean of two replicates) turned out to be 1%. Further, the inhibition at 100 µM (100 μM, mean of two replicates) amounted to 0%. For `O=C(O)CC1Sc2nnc(Cc3ccc4ccccc4c3)n2N=C1c1ccc(Cl)cc1` (stereo not drawn) [Compound 30, 2-(6-(4-chlorophenyl)-3-(naphthalen-2-ylmethyl)-7H-[1,2,4]triazolo[3,4-b][1,3,4]thiadiazin-7-yl)acetic acid], where the note is “50 μM, mean of two replicates”, the inhibition at 50 µM was 49%. For the same compound, the inhibition at 100 µM (100 μM, mean of two replicates) is 88%.

Turning to `O=C(O)CC1Sc2nnc(Cc3ccc(Br)cc3)n2N=C1c1ccc(C(F)(F)F)cc1` (stereo not drawn) [Compound 20, 2-(3-(4-bromobenzyl)-6-(4-(trifluoromethyl)phenyl)-7H-[1,2,4]triazolo[3,4-b][1,3,4]thiadiazin-7-yl)acetic acid], under “50 μM, mean of two replicates”, the inhibition at 50 µM is 11%. Moreover, the inhibition at 100 µM (100 μM, mean of two replicates) is 57%.

With `O=C(O)CC1Sc2nnc(-c3cccs3)n2N=C1c1ccc(Cl)cc1` (stereo not drawn) [Compound 15, 2-(6-(4-chlorophenyl)-3-(thiophen-2-yl)-7H-[1,2,4]triazolo[3,4-b][1,3,4]thiadiazin-7-yl)acetic acid], the inhibition at 100 µM (100 μM, mean of two replicates) was 50%.

For the compound `COC(=O)CC1Sc2nnc(-c3cccs3)n2N=C1c1ccc(Cl)cc1` (stereo not drawn) [Compound 32, Methyl-2-(6-(4-chlorophenyl)-3-(thiophen-2-yl)-7H-[1,2,4]triazolo[3,4-b][1,3,4]thiadiazin-7-yl)acetate], the inhibition at 100 µM (100 μM, mean of two replicates) was found to be 20%. Turning to `O=C(CC1Sc2nnc(Cc3ccc(Br)cc3)n2N=C1c1ccc(Cl)cc1)NS(=O)(=O)c1cccs1` (stereo not drawn) [Compound 36], the inhibition at 10 µM came to 18%, the inhibition at 50 µM amounted to 87% and the inhibition at 100 µM stood at 100%. Take `O=C(O)CC1Sc2nnc(Cc3ccc(Br)cc3)n2N=C1c1ccc(F)cc1` (stereo not drawn) [Compound 23, 2-(3-(4-bromobenzyl)-6-(4-fluorophenyl)-7H-[1,2,4]triazolo[3,4-b][1,3,4]thiadiazin-7-yl)acetic acid]: the inhibition at 50 µM (50 μM, mean of two replicates) was found to be 25%. Besides, where the note is “100 μM, mean of two replicates”, the inhibition at 100 µM was 39%. Take `O=C(O)CC1Sc2nnc(Cc3ccc(-c4ccccc4)cc3)n2N=C1c1ccc(Cl)cc1` (stereo not drawn) [Compound 29, 2-(3-([1,1′-biphenyl]-4-ylmethyl)-6-(4-chlorophenyl)-7H-[1,2,4]triazolo[3,4-b][1,3,4]thiadiazin-7-yl)acetic acid]: the inhibition at 50 µM (50 μM, mean of two replicates) came to 100%. Also, the inhibition at 100 µM (100 μM, mean of two replicates) was found to be 100%. Regarding `O=C(CC1Sc2nnc(Cc3ccc(Br)cc3)n2N=C1c1ccc(Cl)c(Cl)c1)NS(=O)(=O)c1ccccc1` (stereo not drawn) [Compound 39], the inhibition at 10 µM was found to be 51%, the inhibition at 50 µM came to 100% and the inhibition at 100 µM stood at 100%. On to `O=C(CC1Sc2nnc(Cc3ccc(-c4ccccc4)cc3)n2N=C1c1ccc(Cl)c(Cl)c1)NS(=O)(=O)c1ccccc1` (stereo not drawn) [Compound 40], for which the inhibition at 10 µM worked out at 85%, the inhibition at 50 µM is 100% and the inhibition at 100 µM was found to be 100%. `Cc1ccc(C2=Nn3c(Cc4ccc(Br)cc4)nnc3SC2CC(=O)O)cc1C` (stereo not drawn) [Compound 17, 2-(3-(4-bromobenzyl)-6-(3,4-dimethylphenyl)-7H-[1,2,4]triazolo[3,4-b][1,3,4]thiadiazin-7-yl)acetic acid]: the inhibition at 50 µM (50 μM, mean of two replicates) worked out at 41%. Besides, for the setting “100 μM, mean of two replicates”, the inhibition at 100 µM was 80%. For `O=C(O)CC1Sc2nnc(Cc3ccc(Br)cc3)n2N=C1c1ccc(Br)cc1` (stereo not drawn) [Compound 19, 2-(3-(4-bromobenzyl)-6-(4-bromophenyl)-7H-[1,2,4]triazolo[3,4-b][1,3,4]thiadiazin-7-yl)acetic acid] the same measures were 67% and 90%. As to `O=C(O)CC1Sc2nnc(CCc3ccc(Br)cc3)n2N=C1c1ccc(Cl)cc1` (stereo not drawn) [Compound 27, 2-(3-(4-bromophenethyl)-6-(4-chlorophenyl)-7H-[1,2,4]triazolo[3,4-b][1,3,4]thiadiazin-7-yl)acetic acid], the inhibition at 50 µM (50 μM, mean of two replicates) came to 48%. Further, the inhibition at 100 µM (100 μM, mean of two replicates) was determined as 69%. Consider `C=CCNC(=O)CC1Sc2nnc(Cc3ccc(Br)cc3)n2N=C1c1ccc(Cl)cc1` (stereo not drawn) [Compound 35, N-allyl-2-(3-(4-bromobenzyl)-6-(4-chlorophenyl)-7H-[1,2,4]triazolo[3,4-b][1,3,4]thiadiazin-7-yl)acetamide], for which the inhibition at 100 µM (100 μM, mean of two replicates) is 0%.

On to `O=C(O)CC1Sc2nnc(-c3cccs3)n2N=C1c1ccc(Cl)c(Cl)c1` (stereo not drawn) [Compound 18, 2-(6-(3,4-dichlorophenyl)-3-(thiophen-2-yl)-7H-[1,2,4]triazolo[3,4-b][1,3,4]thiadiazin-7-yl)acetic acid], for which the inhibition at 100 µM (100 μM, mean of two replicates) worked out at 80%.

Turning to `O=C(O)CC1Sc2nnc(-c3ccc(Br)cc3)n2N=C1c1ccc(Cl)cc1` (stereo not drawn) [Compound 26, 2-(3-(4-bromophenyl)-6-(4-chlorophenyl)-7H-[1,2,4]triazolo[3,4-b][1,3,4]thiadiazin-7-yl)acetic acid], the inhibition at 50 µM (50 μM, mean of two replicates) turned out to be 23%. Besides, for the setting “100 μM, mean of two replicates”, the inhibition at 100 µM was 41%.

The record behind these values is patent US10080757B2 (WISCONSIN ALUMNI RESEARCH FOUNDATION, priority 2016, dated 2018).
